Where two headings read alike, the source gives them in different places.
Experiments:
CYP1A1 [1] = conditions: for mCherry fluorescence intensity at different concentrations: real-time, TCDD positive control
Method: The CYP1A1 fluorescently labelled stem cell line-derived hepatic organoids were treated with the selected hazardous chemicals, tert-butylhydroquinone (tBHQ), 1,2-naphtoquinone (1,2-NQ), and 1,4-naphtoquinone (1,4-NQ) to observe the changes in mCherry fluorescence intensity in real-time.

CYP1A1 [2] = assay: CYP1A1 mRNA expression level in CYP1A1-mCherry hPSC-derived hepatic organoids; assay type: cell-based, human
[3] = hepatic organoids, real-time fluorescence, 24 hours of treatment

In the case of `O=C1C=CC(=O)c2ccccc21` [1,4-NQ, 1,4-Naphtoquinone], the “mCherry fluorescence intensity at different concentrations” value (CYP1A1 [1]; hepatic organoids) is reported as “increased in a concentration-dependent manner”.
With `Clc1cc2c(cc1Cl)Oc1cc(Cl)c(Cl)cc1O2` [TCDD, 2,3,7,8-tetrachlorodibenzo-p-dioxin] the “mCherry fluorescence intensity, time-lapse imaging” value (CYP1A1 [1]; hepatic organoids, 3-hour intervals up to 72 hours after treatment) was “increased in a time-dependent manner”, the mCherry fluorescence (CYP1A1 [1]; hepatic organoids, 24 hours after treatment, imaging device) was “increase” and the “CYP1A1 mRNA expression level” value (CYP1A1 [2]; 24 hours after treatment) was “increased”.
For `CC(C)(C)c1cc(O)ccc1O` [tBHQ, tert-Butylhydroquinone], the “mCherry fluorescence intensity at different concentrations” value (CYP1A1 [1]; hepatic organoids) was “increased in a concentration-dependent manner”.
`Cc1ccc2cc3c(ccc4ccccc43)c3c2c1CC3` [3-MC, 3-methylcholanthrene] was tested, and the “mCherry fluorescence intensity in hepatic organoids” value (CYP1A1 [1]; [3]) was “increase”.
With `COc1cccc2c1C(=O)c1c(O)c3c(c(O)c1C2=O)C[C@@](O)(C(=O)CO)C[C@@H]3O[C@H]1C[C@H](N)[C@H](O)[C@H](C)O1` [DOX, doxorubicin] the “mCherry fluorescence intensity in hepatic organoids” value (CYP1A1 [1]) was “increase”.
With `O=C1C=Cc2ccccc2C1=O` [1,2-NQ, 1,2-Naphtoquinone] the “mCherry fluorescence intensity at different concentrations” value (CYP1A1 [1]; hepatic organoids) was “increased in a concentration-dependent manner”.
In the case of `O=Cc1c2c(cc3c1=Nc1ccccc1-3)=Nc1ccccc1-2` [FICZ, 6-formylindolo [3,2-B]carbazole], the “mCherry fluorescence intensity in hepatic organoids” value (CYP1A1 [1]; [3]) is reported as “increase”.
In the case of `Cc1oncc1C(=O)Nc1ccc(C(F)(F)F)cc1` [leflunomide], the “mCherry fluorescence intensity in hepatic organoids” value (CYP1A1 [1]) is reported as “increase”.
In the case of `Cc1ccccc1N=Nc1ccc(NC(=O)c2ccnn2C)c(C)c1` [CH223191], the “mCherry fluorescence intensity, treated together with AHR agonists” value (CYP1A1 [1]; hepatic organoids, treated together with TCDD and BaP) is reported as “decreased”, the “mCherry fluorescence intensity, treated together with three hazardous chemicals” value (CYP1A1 [1]; hepatic organoids, treated together with tBHQ, 1,2-NQ, 1,4-NQ) is reported as “decreased” and the “CYP1A1 gene expression level, treated together with AHR agonists” value (CYP1A1 [2]; treated together with TCDD and BaP) is reported as “decreased”. The “CYP1A1 mRNA expression level, treated together with three hazardous chemicals” value (CYP1A1 [2]; treated together with tBHQ, 1,2-NQ, 1,4-NQ) was “decrease”.
`COc1cccc2c1C(=O)c1c(O)c3c(c(O)c1C2=O)C[C@@](O)(C(C)=O)C[C@@H]3O[C@H]1C[C@H](N)[C@H](O)[C@H](C)O1` [daunorubicin] was tested, and the “mCherry fluorescence intensity in hepatic organoids” value (CYP1A1 [1]) was “increase”.
For `CC(=O)[C@]1(O)Cc2c(O)c3c(c(O)c2[C@@H](O[C@H]2C[C@H](N)[C@H](O)[C@H](C)O2)C1)C(=O)c1ccccc1C3=O` [idarubicin], the “mCherry fluorescence intensity in hepatic organoids” value (CYP1A1 [1]) was “increase”.

Reference: US20250136946A1, “REAL-TIME CHEMICAL SCREENING METHOD USING LIVER ORGANOIDS FLUORESCENTLY LABELED WITH CYTOCHROME P450 1A1 ENZYME” (priority 2023, published 2025)
